According to patent US8471005B2 (Cephalon, Inc., priority 2008, dated 2013):
Like-named read-outs stand apart in the source and are kept apart here.

How the values were obtained:
ALK = biological target: T1, ALK (Homo sapiens, UniProt Q9UM73); assay: ALK Kinase Assay (ELISA/TRF, PLC-γ substrate); assay type: biochemical; conditions: read-out: ALK Potency
T1 construct: host or cells: baculovirus expression system
Outline: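 Wells were coated with 10 μg/mL phospholipase C-γ substrate in TBS, and the reaction was started by adding 30 ng/ml ALK enzyme and run at 37° C for 15 minutes. Phosphorylated product was detected with Eu-N1-labeled PT66 antibody, and IC50 values came from sigmoidal variable-slope fits of percent inhibition against log concentration.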

JAK2 = biological target: T2, JAK2 (Homo sapiens, UniProt O60674); assay: Recombinant Human JAK2 Kinase Assay (TRF); assay type: biochemical; conditions: read-out: JAK2 Potency
T2 construct: host or cells: baculovirus expression system
T2 sequence (O60674 whole entry): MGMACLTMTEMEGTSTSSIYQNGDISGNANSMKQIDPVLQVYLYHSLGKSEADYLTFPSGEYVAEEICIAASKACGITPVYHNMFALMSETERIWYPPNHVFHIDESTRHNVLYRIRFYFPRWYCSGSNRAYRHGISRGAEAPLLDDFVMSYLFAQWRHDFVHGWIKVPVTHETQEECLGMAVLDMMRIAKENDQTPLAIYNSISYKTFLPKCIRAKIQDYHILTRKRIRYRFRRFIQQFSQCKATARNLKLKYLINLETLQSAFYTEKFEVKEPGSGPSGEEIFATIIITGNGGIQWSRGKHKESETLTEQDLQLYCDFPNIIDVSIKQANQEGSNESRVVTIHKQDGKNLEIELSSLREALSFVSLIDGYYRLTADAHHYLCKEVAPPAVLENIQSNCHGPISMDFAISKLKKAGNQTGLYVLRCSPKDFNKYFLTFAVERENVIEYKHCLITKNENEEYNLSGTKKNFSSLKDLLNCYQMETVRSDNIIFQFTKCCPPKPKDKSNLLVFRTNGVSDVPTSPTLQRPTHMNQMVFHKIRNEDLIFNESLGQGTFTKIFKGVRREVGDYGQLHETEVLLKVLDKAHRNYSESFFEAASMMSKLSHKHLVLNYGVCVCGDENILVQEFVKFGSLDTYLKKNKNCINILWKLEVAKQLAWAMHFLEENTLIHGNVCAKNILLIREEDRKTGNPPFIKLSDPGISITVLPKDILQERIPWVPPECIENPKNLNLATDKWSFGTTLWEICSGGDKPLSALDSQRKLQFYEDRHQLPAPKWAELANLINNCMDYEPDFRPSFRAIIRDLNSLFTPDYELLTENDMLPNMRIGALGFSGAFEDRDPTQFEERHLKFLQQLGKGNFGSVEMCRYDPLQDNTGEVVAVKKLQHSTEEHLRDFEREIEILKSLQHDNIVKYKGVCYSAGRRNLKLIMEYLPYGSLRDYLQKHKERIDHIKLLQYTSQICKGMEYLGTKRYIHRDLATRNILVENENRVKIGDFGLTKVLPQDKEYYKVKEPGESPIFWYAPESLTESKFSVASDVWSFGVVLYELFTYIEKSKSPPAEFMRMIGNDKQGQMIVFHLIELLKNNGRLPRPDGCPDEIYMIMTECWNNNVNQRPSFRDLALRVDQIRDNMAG
Outline: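 TRF read-out: Eu-N1 PY100 anti-phosphotyrosine antibody detects product. Enzyme is baculovirus-expressed JAK2 at 15 ng/ml; substrate is a biotinyl 15-mer peptide bound to Neutravidin-coated wells. Buffer 20 mM HEPES pH 7.2, 0.2 μM ATP, 1 mM MnCl2, 0.1% BSA, 2.5% DMSO final; 20 min, RT.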

[1] = ALK kinase inhibition, 1 μM ATP
[2] = JAK2 kinase inhibition, 0.2 μM ATP

T1 sequence (Q9UM73 19-1620): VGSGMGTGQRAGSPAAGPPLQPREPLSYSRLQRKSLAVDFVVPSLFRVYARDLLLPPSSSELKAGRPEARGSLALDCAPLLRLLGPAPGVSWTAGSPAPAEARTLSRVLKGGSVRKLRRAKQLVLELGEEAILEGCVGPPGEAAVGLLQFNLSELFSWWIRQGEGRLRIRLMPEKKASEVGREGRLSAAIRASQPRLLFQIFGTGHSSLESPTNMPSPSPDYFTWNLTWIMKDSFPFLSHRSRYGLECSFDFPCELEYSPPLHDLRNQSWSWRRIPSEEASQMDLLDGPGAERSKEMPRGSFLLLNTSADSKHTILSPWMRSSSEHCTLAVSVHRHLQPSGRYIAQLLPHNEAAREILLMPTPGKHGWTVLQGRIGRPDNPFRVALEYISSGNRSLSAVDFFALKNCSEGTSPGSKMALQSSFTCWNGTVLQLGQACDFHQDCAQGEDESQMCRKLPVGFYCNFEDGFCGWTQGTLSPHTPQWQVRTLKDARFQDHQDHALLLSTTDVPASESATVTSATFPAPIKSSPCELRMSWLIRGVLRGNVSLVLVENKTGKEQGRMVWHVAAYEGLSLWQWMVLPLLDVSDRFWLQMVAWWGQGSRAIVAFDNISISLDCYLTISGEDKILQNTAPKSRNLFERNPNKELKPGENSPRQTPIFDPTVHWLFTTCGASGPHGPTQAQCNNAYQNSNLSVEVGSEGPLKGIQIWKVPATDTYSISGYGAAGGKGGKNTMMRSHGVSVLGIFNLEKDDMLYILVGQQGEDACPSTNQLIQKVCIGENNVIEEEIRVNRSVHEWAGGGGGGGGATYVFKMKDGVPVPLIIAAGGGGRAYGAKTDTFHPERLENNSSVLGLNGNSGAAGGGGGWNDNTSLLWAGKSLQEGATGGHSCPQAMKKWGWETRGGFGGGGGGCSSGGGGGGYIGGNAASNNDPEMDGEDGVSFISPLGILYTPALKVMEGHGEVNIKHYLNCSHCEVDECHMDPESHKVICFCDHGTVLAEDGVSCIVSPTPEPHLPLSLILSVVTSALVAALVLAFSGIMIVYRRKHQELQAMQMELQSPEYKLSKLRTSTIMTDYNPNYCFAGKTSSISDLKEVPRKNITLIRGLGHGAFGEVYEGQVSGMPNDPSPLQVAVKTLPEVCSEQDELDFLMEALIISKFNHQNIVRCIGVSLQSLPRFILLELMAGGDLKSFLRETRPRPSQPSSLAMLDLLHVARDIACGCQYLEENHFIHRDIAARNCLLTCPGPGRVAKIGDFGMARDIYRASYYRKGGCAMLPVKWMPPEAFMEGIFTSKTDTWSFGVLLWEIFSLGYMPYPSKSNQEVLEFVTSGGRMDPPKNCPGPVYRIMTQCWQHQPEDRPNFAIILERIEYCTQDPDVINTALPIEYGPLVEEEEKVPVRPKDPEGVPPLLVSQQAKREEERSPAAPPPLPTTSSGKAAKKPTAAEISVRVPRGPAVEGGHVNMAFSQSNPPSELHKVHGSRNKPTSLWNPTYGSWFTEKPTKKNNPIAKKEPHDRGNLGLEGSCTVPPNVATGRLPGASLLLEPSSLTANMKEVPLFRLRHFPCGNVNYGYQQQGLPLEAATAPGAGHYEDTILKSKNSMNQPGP

Compound | IC50 (ALK; [1]) [µM] | IC50 (JAK2; [2]) [µM] | IC50 (ALK; ALK Kinase Inhibition) [µM] | IC50 (JAK2; JAK2 Kinase Inhibition) [µM]
COc1cc(N2CCC(N3CC[C@H](O)C3)CC2)ccc1Nc1ncc2ccc(-c3ccccc3OC)n2n1 [Example 483, (S)-1-(1-{3-Methoxy-4-[7-(2-methoxy-phenyl)-pyrrolo[2,1-f][1,2,4]triazin-2-ylamino]-phenyl}-piperidin-4-yl)-pyrrolidin-3-ol] | < 0.1 | 0.1 to 1 |  | 
CN(c1ccccc1-c1ccc2cnc(Nc3ccc(N4CCN(CC(N)=O)CC4)c(F)c3)nn12)S(C)(=O)=O [Example 1422, 2-[4-(2-Fluoro-4-{7-[2-(methanesulfonyl-methyl-amino)-phenyl]-pyrrolo[2,1-f][1,2,4]triazin-2-ylamino}-phenyl)-piperazin-1-yl]-acetamide] |  |  | 0.1 to 1 | < 0.1
COc1cc(C2CCNCC2)ccc1Nc1ncc2ccc(-c3cccc(S(=O)(=O)NC(C)(C)C)c3)n2n1 [Example 691, N-tert-Butyl-3-[2-(2-methoxy-4-piperidin-4-yl-phenylamino)-pyrrolo[2,1-f][1,2,4]triazin-7-yl]-benzenesulfonamide] | < 0.1 | 0.1 to 1 |  | 
COc1cc(Cl)ccc1-c1ccc2cnc(Nc3ccc(N4CCC(C(=O)N5CCN(C)CC5)CC4)cc3)nn12 [Example 484, (1-{4-[7-(4-Chloro-2-methoxy-phenyl)-pyrrolo[2,1-f][1,2,4]triazin-2-ylamino]-phenyl}-piperidin-4-yl)-(4-methyl-piperazin-1-yl)-methanone] | < 0.1 | < 0.1 |  | 
COc1ccccc1-c1ccc2cnc(Nc3ccc4nc(CN5CCN(C)CC5)[nH]c4c3)nn12 [Example 1526, [7-(2-Methoxy-phenyl)-pyrrolo[2,1-f][1,2,4]triazin-2-yl]-[2-(4-methyl-piperazin-1-ylmethyl)-3H-benzimidazol-5-yl]-amine] |  |  | 0.1 to 1 | < 0.1
CN1CCN(c2ccc(Nc3ncc4ccc(-c5ccccc5OCC(=O)O)n4n3)cc2F)CC1 [Example 1401, (2-{2-[3-Fluoro-4-(4-methyl-piperazin-1-yl)-phenylamino]-pyrrolo[2,1-f][1,2,4]triazin-7-yl}-phenoxy)-acetic acid] |  |  | 0.1 to 1 | < 0.1
COc1cc(C2CCN(CC(N)=O)CC2)ccc1Nc1ncc2ccc(-c3cccnc3N(C)S(C)(=O)=O)n2n1 [Example 1257, 2-[4-(4-{7-[2-(Methanesulfonyl-methyl-amino)-pyridin-3-yl]-pyrrolo[2,1-f][1,2,4]triazin-2-ylamino}-3-methoxy-phenyl)-piperidin-1-yl]-acetamide] | < 0.1 | 1 to 10 |  | 
CN(C)Cc1ccc(-c2ccc3cnc(Nc4ccc(C5CCN(CC(N)=O)CC5)cc4)nn23)cc1 [Example 1433, 2-(4-{4-[7-(4-Dimethylaminomethyl-phenyl)-pyrrolo[2,1-f][1,2,4]triazin-2-ylamino]-phenyl}-piperidin-1-yl)-acetamide] |  |  | 1 to 10 | 1 to 10
Cn1cnc2ccc(Nc3ncc4ccc(-c5cccc(S(=O)(=O)NC(C)(C)C)c5)n4n3)cc21 [Example 1300, N-tert-Butyl-3-[2-(3-methyl-3H-benzimidazol-5-ylamino)-pyrrolo[2,1-f][1,2,4]triazin-7-yl]-benzenesulfonamide] | 0.1 to 1 | < 0.1 |  | 
COc1cc(C2CCNCC2)ccc1Nc1ncc2ccc(-c3ccc(C)cc3N(C)S(C)(=O)=O)n2n1 [Example 1281, N-{2-[2-(2-Methoxy-4-piperidin-4-yl-phenylamino)-pyrrolo[2,1-f][1,2,4]triazin-7-yl]-5-methyl-phenyl}-N-methyl-methanesulfonamide] | < 0.1 | 0.1 to 1 |  | 
COc1cc(N2CCC(N3CCOCC3)C2)ccc1Nc1ncc2ccc(-c3ccccc3OC)n2n1 (racemic) [Example 779, (±)-[2-Methoxy-4-(3-morpholin-4-yl-pyrrolidin-1-yl)-phenyl]-[7-(2-methoxyphenyl)-pyrrolo[2,1-f][1,2,4]triazin-2-yl]-amine] | 0.1 to 1 | 0.1 to 1 |  | 
CN1CCN(c2cccc(Nc3ncc4ccc(-c5cnn(CCC#N)c5)n4n3)c2)CC1 [Example 977, 3-(4-{2-[3-(4-Methyl-piperazin-1-yl)-phenylamino]-pyrrolo[2,1-f][1,2,4]triazin-7-yl}-pyrazol-1-yl)-propionitrile] | 0.1 to 1 | < 0.1 |  | 

The next lines start with the values.

IC50 (ALK; [1]) [µM] | IC50 (JAK2; [2]) [µM] | IC50 (ALK; ALK Kinase Inhibition) [µM] | IC50 (JAK2; JAK2 Kinase Inhibition) [µM] | Compound
0.1 to 1 | < 0.1 |  |  | O=S1(=O)CCN(Cc2ccc(-c3ccc4cnc(Nc5ccc(N6CCOCC6)cc5)nn34)cc2)CC1 [Example 1032, {7-[4-(1,1-Dioxo-1$1(6)-thiomorpholin-4-ylmethyl)-phenyl]-pyrrolo[2,1-f][1,2,4]triazin-2-yl}-(4-morpholin-4-yl-phenyl)-amine]
 |  | 1 to 10 | < 0.1 | CC(=O)c1ccccc1-c1ccc2cnc(Nc3ccc(N4CCOCC4)cc3)nn12 [Example 400, 1-{2-[2-(4-Morpholin-4-yl-phenylamino)-pyrrolo[2,1-f][1,2,4]triazin-7-yl]-phenyl}-ethanone]
 |  | 0.1 to 1 | < 0.1 | CC(=O)c1ccccc1-c1ccc2cnc(Nc3ccc(N4CCN(C)CC4)cc3)nn12 [Example 402, 1-(2-{2-[4-(4-Methyl-piperazin-1-yl)-phenylamino]-pyrrolo[2,1-f][1,2,4]triazin-7-yl}-phenyl)-ethanone]
 |  | 0.1 to 1 | < 0.1 | COc1ccccc1-c1ccc2cnc(Nc3ccc4nc(CN5CCOCC5)[nH]c4c3)nn12 [Example 1518, [7-(2-Methoxy-phenyl)-pyrrolo[2,1-f][1,2,4]triazin-2-yl]-(2-morpholin-4-ylmethyl-3H-benzimidazol-5-yl)-amine]
< 0.1 | < 0.1 |  |  | CN(c1ccccc1-c1ccc2cnc(Nc3ccc(C4CCN(CCO)CC4)cc3)nn12)S(C)(=O)=O [Example 669, N-[2-(2-{4-[1-(2-Hydroxy-ethyl)-piperidin-4-yl]-phenylamino}-pyrrolo[2,1-f][1,2,4]triazin-7-yl)-phenyl]-N-methyl-methanesulfonamide]
 |  | 1 to 10 | < 0.1 | CS(=O)(=O)c1cccc(-c2ccc3cnc(Nc4cccc(N5CCOCC5)c4)nn23)c1 [Example 184, [7-(3-Methanesulfonyl-phenyl)-pyrrolo[2,1-f][1,2,4]triazin-2-yl]-(3-morpholin-4-yl-phenyl)-amine]
< 0.1 | < 0.1 |  |  | COc1ccccc1-c1ccc2cnc(Nc3ccc4c(c3)CCN(C)C4)nn12 [Example 915, [7-(2-Methoxy-phenyl)-pyrrolo[2,1-f][1,2,4]triazin-2-yl]-(2-methyl-1,2,3,4-tetrahydro-isoquinolin-6-yl)-amine]
0.1 to 1 | < 0.1 |  |  | COc1ccccc1-c1ccc2cnc(Nc3ccc(N4CCN(C)CC4)cn3)nn12 [Example 1177, [7-(2-Methoxy-phenyl)-pyrrolo[2,1-f][1,2,4]triazin-2-yl]-[5-(4-methyl-piperazin-1-yl)-pyridin-2-yl]-amine]
 |  | 0.1 to 1 | < 0.1 | CN1CCN(c2ccc(Nc3ncc4ccc(-c5cccc(N(C)S(C)(=O)=O)c5)n4n3)cc2)CC1 [Example 419, N-Methyl-N-(3-{2-[4-(4-methyl-piperazin-1-yl)-phenylamino]-pyrrolo[2,1-f][1,2,4]triazin-7-yl}-phenyl)-methanesulfonamide]
< 0.1 | < 0.1 |  |  | COc1ccccc1-c1ccc2cnc(Nc3ccc(C4CCN(CC(N)=O)CC4)cc3)nn12 [Example 660, 2-(4-{4-[7-(2-Methoxy-phenyl)-pyrrolo[2,1-f][1,2,4]triazin-2-ylamino]-phenyl}-piperidin-1-yl)-acetamide]
